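48-hour exposure; five concentrations; linearly interpolated endpoints. GI50 is the concentration that inhibits growth by half.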 The source made the active and inactive calls. Rule as the data show it: active = GI50 up to about 1.1 µM and inactive = higher.

From ChEMBL document CHEMBL1201862, “PubChem BioAssay data set” (2004) come the findings set out here.

Assay in all cases: NCI anticancer screen, dose series, 48 h
Assay [1] has as its system A498.
Assay [2] has as its system A549.
Assay [3] concerns ACHN.
Assay [4] has as its system CAKI-1.
Assay [5] deals with CCRF-CEM.
Assay [6] deals with HT-29.
Assay [7] has as its system IGROV-1.
The subject of assay [8] is KM12.
The subject of assay [9] is LOX IMVI.
The test system of assay [10] is MDA-MB-435.
For assay [11], the system named is Malme-3M.
For assay [12], the system named is NCI/ADR-RES.
The subject of assay [13] is OVCAR-5.
For assay [14], the system named is SK-MEL-2.
The test system of assay [15] is SN12C.
Assay [16] has as its system SNB-19.
The subject of assay [17] is SNB-75.
Assay [18] relates to U-251.
Assay [19] deals with M14.
For assay [20], the system named is NCI-H23.

Regarding `Cc1ccc(S(=O)(=O)Nn2c(O)c(C#N)c(-c3ccc(N(C)C)cc3)c(C#N)c2=O)cc1`, the GI50 in [1], in [2], in assay [3], in assay [4], in assay [5] and in assay [6] was > 50 µM (inactive) throughout. The GI50 in [7], in assay [8], in [9], in assay [10], in assay [11] and in [12] was > 50 µM (inactive) throughout. The GI50 is 21.8 µM (inactive) in assay [13]; > 50 µM (inactive) in assay [14]; > 50 µM (inactive) in [15]; > 50 µM (inactive) in assay [16]; > 50 µM (inactive) in [17]; > 50 µM (inactive) in [18].
Consider `O=C1c2ccccc2C(=O)c2c1oc(=O)c1ccccc21`, for which the GI50 in assay [1] is 9.82 µM (inactive); in assay [2], 7.46 µM (inactive); in assay [3], 4.59 µM (inactive); in [4], 6.21 µM (inactive); in assay [5], 1.93 µM (inactive); in assay [6], 1.4 µM (inactive). Also, the GI50 in [7] was 3.73 µM (inactive); in assay [8], 5.51 µM (inactive); in [9] it was 3.65 µM (inactive); in assay [19] it was 6.05 µM (inactive); in assay [10] it was 1.06 µM (active); in [11], 2.63 µM (inactive). Further, the GI50 in assay [20] is 4.23 µM (inactive); in assay [12], 1.94 µM (inactive); in assay [13], 6.03 µM (inactive); in assay [14] it was 4.84 µM (inactive); in assay [15], 3.49 µM (inactive); in assay [16] it was 8.75 µM (inactive). In addition, the figures for the GI50 in assay [17] and in assay [18] were 5.24 µM (inactive) and 2.96 µM (inactive), respectively.
As to `c1csc(-c2cc(-c3ccsc3)cs2)c1`, the GI50 in assay [1] is > 100 µM (inactive); in assay [2], 44.8 µM (inactive); in [3], > 100 µM (inactive); in assay [4], > 100 µM (inactive); in assay [5], > 100 µM (inactive); in assay [6] it was 41.4 µM (inactive). Moreover, the GI50 was 45.2 µM (inactive) in assay [7]; > 100 µM (inactive) in assay [8]; > 100 µM (inactive) in assay [9]; > 100 µM (inactive) in assay [19]; > 100 µM (inactive) in assay [10]; 14.9 µM (inactive) in [20]. For the same compound, the GI50 in assay [12] was > 100 µM (inactive); in assay [13], 63.1 µM (inactive); in [14] it was 98.6 µM (inactive); in assay [15] it was > 100 µM (inactive); in assay [17] it was > 100 µM (inactive); in [18], > 100 µM (inactive).
For `CCOC(=O)c1cc2c3c(c(C(C)=O)c(OC)c2[nH]1)N(C(=O)CC)CC3`, the GI50 in assay [1] was 36.9 µM (inactive); in assay [2], 14 µM (inactive); in assay [4], 14.9 µM (inactive); in assay [5], 13.7 µM (inactive); in assay [6] it was 16.6 µM (inactive); in assay [7] it was 13.6 µM (inactive). Further, the GI50 in assay [8] was 10.7 µM (inactive); in [9] it was 14.6 µM (inactive); in [19], 16.8 µM (inactive); in [10], 15.6 µM (inactive); in [11], 12.6 µM (inactive); in [20], 11.9 µM (inactive). Besides, the GI50 was 13.4 µM (inactive) in [12]; 27.7 µM (inactive) in assay [13]; 22.3 µM (inactive) in assay [14]; 20.9 µM (inactive) in [15]; 12.8 µM (inactive) in assay [16]; 20.7 µM (inactive) in assay [17]. In assay [18], the GI50 is 19.2 µM (inactive).
With `O=C(c1ccccc1Cl)n1oc2ccccc2c1=O`, the GI50 in assay [1] is > 100 µM (inactive); in assay [2], > 100 µM (inactive); in [3], > 100 µM (inactive); in assay [4] it was 29.7 µM (inactive); in assay [5] it was 27.5 µM (inactive); in assay [6], 60.4 µM (inactive). Moreover, the GI50 in assay [7] was 69.2 µM (inactive); in assay [8], 84.1 µM (inactive); in assay [9] it was 72.3 µM (inactive); in assay [19], > 100 µM (inactive); in [10], > 100 µM (inactive); in assay [11], > 100 µM (inactive). In addition, the GI50 in assay [12] was > 100 µM (inactive); in assay [13] it was > 100 µM (inactive); in assay [14], > 100 µM (inactive); in assay [15] it was > 100 µM (inactive); in [16], > 100 µM (inactive); in assay [17], 51.1 µM (inactive). The GI50 in [18] is > 100 µM (inactive).
Consider `COC12C=CC(CC1)C(C)(C)C2OS(C)(=O)=O` (stereo not given), for which the GI50 in assay [1] was 97.1 µM (inactive); in assay [2] it was > 100 µM (inactive); in [3] it was > 100 µM (inactive); in assay [4], > 100 µM (inactive); in assay [5], > 100 µM (inactive); in [6], > 100 µM (inactive). In addition, the GI50 in assay [7], in assay [8], in [19], in assay [10], in assay [11] and in assay [20] was > 100 µM (inactive) each time. Moreover, the GI50 in assay [12] was > 100 µM (inactive); in assay [13] it was > 100 µM (inactive); in assay [14], > 100 µM (inactive); in [15], > 100 µM (inactive); in [16], > 100 µM (inactive); in assay [17] it was 38.3 µM (inactive). Besides, the GI50 in assay [18] was > 100 µM (inactive).
On to `COc1nc2c(c(=O)n1C)N[C@H]1[C@H](OC(C)=O)[C@@H](OC(C)=O)CO[C@H]1N2`, for which the GI50 in [1] is > 100 µM (inactive); in assay [2], > 100 µM (inactive); in [3], > 100 µM (inactive); in assay [4], > 100 µM (inactive); in assay [5] it was > 10 µM (inactive); in assay [6] it was > 100 µM (inactive). Also, the GI50 in [7], in assay [8], in assay [9], in assay [19], in assay [10] and in assay [11] was > 100 µM (inactive) throughout. Also, the GI50 in assay [12], in assay [13], in [14], in assay [15], in [16] and in assay [17] was > 100 µM (inactive) throughout. The GI50 in assay [18] is > 100 µM (inactive).
In the case of `Clc1ccc(-c2nnc(-c3c(Cl)c(Cl)c(Cl)c(Cl)c3-c3nc4ccccc4[nH]3)o2)cc1`, the GI50 was 82.8 µM (inactive) in [1]; 97.3 µM (inactive) in [3]; 56.1 µM (inactive) in assay [4]; 59.4 µM (inactive) in assay [5]; 98.9 µM (inactive) in assay [6]; 30.2 µM (inactive) in assay [7]. Also, the GI50 in [8] was 97.5 µM (inactive); in assay [9] it was 71.9 µM (inactive); in [19], 69.8 µM (inactive); in assay [10] it was > 100 µM (inactive); in [11], > 100 µM (inactive); in assay [20], 45 µM (inactive). The GI50 was 47.4 µM (inactive) in assay [12]; > 100 µM (inactive) in assay [13]; > 100 µM (inactive) in assay [14]; 46.8 µM (inactive) in assay [15]; 68.7 µM (inactive) in assay [17].
As to `CC1=CCC[C@H]2[C@](C)(CC3=CC(=O)C4SCCSC4C3=O)[C@@H](C)CC[C@]12C` (stereo not given in full), the GI50 in assay [1] was 16.1 µM (inactive); in [2] it was 17.2 µM (inactive); in assay [3], 18.2 µM (inactive); in assay [4], 25.2 µM (inactive); in assay [5] it was 11 µM (inactive); in [7], 32 µM (inactive). The GI50 is 29 µM (inactive) in [8]; 11.2 µM (inactive) in [9]; 14.3 µM (inactive) in assay [19]; 8.09 µM (inactive) in assay [10]; 13.2 µM (inactive) in [20]; 19.1 µM (inactive) in assay [12]. Besides, the GI50 in assay [13] is 18.6 µM (inactive); in [14], 1.71 µM (inactive); in [15], 14.7 µM (inactive); in [16] it was 19 µM (inactive); in [17], 27.7 µM (inactive); in assay [18] it was 14.5 µM (inactive).
Take `O=C1Nc2cc([N+](=O)[O-])ccc2N/C1=C/C(=O)c1ccc(Cl)cc1`: the GI50 was 19.7 µM (inactive) in assay [1]; 10 µM (inactive) in assay [2]; 15.1 µM (inactive) in assay [3]; 17.6 µM (inactive) in assay [4]; 10.5 µM (inactive) in [5]; 15.3 µM (inactive) in [6]. The GI50 in assay [7] is 12.3 µM (inactive); in assay [8], 14.4 µM (inactive); in [9], 11.3 µM (inactive); in assay [19], 12.9 µM (inactive); in assay [10], 18.7 µM (inactive); in [11], 26.3 µM (inactive). Further, the GI50 in assay [20] is 14.2 µM (inactive); in assay [12], 7.71 µM (inactive); in assay [13], 21.5 µM (inactive); in [14] it was 16.9 µM (inactive); in assay [16], 11.2 µM (inactive); in [17], 20.1 µM (inactive). For the same compound, in assay [18], the GI50 is 6.56 µM (inactive).
Turning to `CCCNC1=Nc2ccccc2[C@@H]2N(C)c3ccccc3C(C)C[C@]12C` (stereo not given in full), the GI50 in assay [1] was 14.4 µM (inactive); in assay [2], 28.8 µM (inactive); in [3], 23.8 µM (inactive); in assay [4], 26.3 µM (inactive); in assay [5] it was 26 µM (inactive); in assay [6], 13.2 µM (inactive). Further, the GI50 in assay [7] is 17.8 µM (inactive); in [8], 20.3 µM (inactive); in [9], 13.3 µM (inactive); in assay [19] it was 17.7 µM (inactive); in assay [10] it was 17.8 µM (inactive); in assay [11], 16.6 µM (inactive). Further, the GI50 in assay [20] is 18.2 µM (inactive); in assay [12], 22.4 µM (inactive); in [13], 15.1 µM (inactive); in assay [14] it was 13.2 µM (inactive); in assay [15], 37.1 µM (inactive); in [16], 18.6 µM (inactive). For the same compound, the GI50 in [17] is 15.7 µM (inactive).
